Measured values as given in patent US20250009734A1, “METHODS OF INHIBITING FOXO1 FOR TREATMENT OF LYMPHATIC DISORDERS” (UNIVERSITY OF SOUTH FLORIDA, priority 2023, published 2025).

What was measured:
[1] = tested on: human dermal lymphatic endothelial cells (hdLECs); assay: Immunostaining of PROX1 and β-catenin localization in cultured hdLECs; type: cell-based; settings: 0.5 μM AS for 48 hours, DMSO control: almost exclusively on the cell membrane
Description: FIGS. 2A-2F. AS1842856 elevates protein expression of valve genes and promotes b-catenin nuclear localization in cultured hdLECs. (A) hdLECs were cultured under static condition and treated for 48 hours with 0.5 μM DMSO (vehicle control) or 0.5 μM AS treatment. Thereafter, proteins were extracted, and western blot perform for the indicated proteins. ACTB is the loading control. (B) Quantification results of indicated proteins in western blot from three independent experiments. (C-F) Immunostaining of cultured hdLECs for PROX1 and CTNNB1 protein. All values are mean±SEM. n=3 experiment repeats; ns=not significant; *p≤0.05, **p≤0.01, ***p≤0.001. Vehicle control: 0.5 μM DMSO for 48 hours treatment. AS1842856: 0.5 μM AS1842856 for 48 hours treatment. Cells were stained for PROX1 (green) and CTNNB1 (purple). (E) and (F) are the merged images for PROX1 and CTNNB1. Scale bar is 50 μm.
In cells, phosphorylated β-catenin is degraded in a destruction complex in the cytoplasm, but unphosphorylated β-catenin upon activation is translocated to the nucleus from the cytoplasm (Harada et al., 1999). It has been reported that β-catenin in the nucleus of LECs promotes the expression of valve-forming genes FOXC2 and PROX1 by binding to the promoter areas of these two genes (Cha et al., 2016). […]

FOXO3 = FOXO3 (Homo sapiens, UniProt O43524); settings: Nagashima et al., 2010; cited from earlier work
Sequence of FOXO3 (O43524 whole entry, species assumed): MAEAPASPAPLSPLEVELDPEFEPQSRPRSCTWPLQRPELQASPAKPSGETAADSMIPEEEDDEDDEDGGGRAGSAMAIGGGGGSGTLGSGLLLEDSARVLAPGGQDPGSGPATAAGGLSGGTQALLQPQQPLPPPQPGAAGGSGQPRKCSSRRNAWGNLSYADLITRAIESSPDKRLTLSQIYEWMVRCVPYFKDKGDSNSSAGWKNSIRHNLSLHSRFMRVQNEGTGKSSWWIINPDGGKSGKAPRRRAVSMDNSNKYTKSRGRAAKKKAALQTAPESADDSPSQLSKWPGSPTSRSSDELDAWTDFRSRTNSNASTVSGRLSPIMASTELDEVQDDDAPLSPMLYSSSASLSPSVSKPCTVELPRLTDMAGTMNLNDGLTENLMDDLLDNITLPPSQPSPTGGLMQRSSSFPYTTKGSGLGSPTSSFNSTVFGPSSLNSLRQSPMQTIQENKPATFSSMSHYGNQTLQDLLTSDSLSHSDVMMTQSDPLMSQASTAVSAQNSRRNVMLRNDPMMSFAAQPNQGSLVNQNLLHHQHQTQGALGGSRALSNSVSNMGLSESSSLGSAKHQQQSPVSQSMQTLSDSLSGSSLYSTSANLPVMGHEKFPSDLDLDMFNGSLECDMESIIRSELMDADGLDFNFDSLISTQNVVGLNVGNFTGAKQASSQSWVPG

FOXO4 = FOXO4 (Homo sapiens, UniProt P98177); settings: Nagashima et al., 2010; cited from earlier work
Sequence of FOXO4 (P98177 whole entry, species assumed): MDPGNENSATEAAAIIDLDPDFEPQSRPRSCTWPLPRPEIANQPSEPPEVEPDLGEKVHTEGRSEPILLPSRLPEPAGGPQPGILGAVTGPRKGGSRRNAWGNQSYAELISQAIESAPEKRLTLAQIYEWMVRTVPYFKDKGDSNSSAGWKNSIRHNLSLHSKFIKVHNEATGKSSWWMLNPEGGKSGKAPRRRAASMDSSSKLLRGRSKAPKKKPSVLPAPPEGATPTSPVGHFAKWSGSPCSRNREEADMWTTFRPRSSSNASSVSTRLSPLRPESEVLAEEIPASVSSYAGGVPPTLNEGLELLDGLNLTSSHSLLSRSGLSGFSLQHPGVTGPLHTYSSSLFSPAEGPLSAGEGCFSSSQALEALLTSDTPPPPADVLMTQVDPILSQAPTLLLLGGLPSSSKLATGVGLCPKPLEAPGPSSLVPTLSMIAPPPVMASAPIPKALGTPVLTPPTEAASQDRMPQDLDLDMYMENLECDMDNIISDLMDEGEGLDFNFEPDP

[2] = tested on: human dermal lymphatic endothelial cells (hdLECs); assay: qRT-PCR of valve and flow responsive gene mRNA in cultured hdLECs; type: cell-based
Description: FIG. 1. AS1842856 (AS) has a time and concentration dependent effect on valve genes expression. Human dermal lymphatic endothelial cells (hdLECs) were cultured under static conditions and treated for the indicated time (24, 48, and 72 hours) and concentrations from left to right: DMSO 1 μM, AS 0.1 μM, AS 0.5 μM, and AS 1 μM. Afterwards, mRNA of indicated genes was extracted, reverse transcribe and quantified by qRT-PCR analysis. All values are mean±SEM. n=3 experiment repeats; ns=not significant; *p≤0.05, **p≤0.01.
To investigate this, hdLECs were treated with three distinct concentrations of AS1842856-0.1 μM, 0.5 μM, and 1 μM for 24 hours (hrs), 48 hrs, and 72 hrs. DMSO was used as the vehicle control. The medium was changed every day with freshly made drug. Thereafter, the expression levels of valve genes and flow responsive genes, including FOXC2, GATA2, PROX1, KLF4, ITGA9, GJA4, NOS3, and CTNNB1, were determined using quantitative RT-qPCR. […] Deletion of any of these three genes leads to the absence of lymphatic valve formation during embryonic development (Petrova et al., 2004, Kazenwadel et al., 2015, Cha et al., 2016). […] However, the expression of CTNNB1 was not altered.
Human dermal lymphatic endothelial cells (hdLECs) purchased from Promocell (C-12216) were cultured in EBM-V2 (PromoCell, C-22121) media on fibronectin (20 μl/well) coated 6-well plates. hdLECs were treated with 4 different conditions: DMSO (1 μM), AS1842856 (EMD Millipore Corporation) 0.1 μM, 0.5 μM and 1 μM for 3 different time points: 24, 48, and 72 hours for qRT-PCR. For western blot, hdLECs were treated with 0.5 μM AS1842856 for 48 hours.
The RNeasy Plus Mini Kit (Qiagen) was used to isolate total RNA from hdLECs per the manufacturers' instructions. cDNA synthesis was performed using the AdvantageR RT-for-PCR kit (Takara) according to the manufacturer's guidelines. qPCR was performed in a QuantStudio 6 realtime PCR system (Applied Biosystems) with TaqmanR probes (Applied Biosystems, Thermofisher) and the Cq value of each gene was normalized to the that of GAPDH.

FOXO1 = FOXO1 (Homo sapiens, UniProt Q12778); settings: binds to FOXO1 protein, prevents binding to promoter regions; Nagashima et al., 2010; cited from earlier work
Sequence of FOXO1 (Q12778 whole entry, species assumed): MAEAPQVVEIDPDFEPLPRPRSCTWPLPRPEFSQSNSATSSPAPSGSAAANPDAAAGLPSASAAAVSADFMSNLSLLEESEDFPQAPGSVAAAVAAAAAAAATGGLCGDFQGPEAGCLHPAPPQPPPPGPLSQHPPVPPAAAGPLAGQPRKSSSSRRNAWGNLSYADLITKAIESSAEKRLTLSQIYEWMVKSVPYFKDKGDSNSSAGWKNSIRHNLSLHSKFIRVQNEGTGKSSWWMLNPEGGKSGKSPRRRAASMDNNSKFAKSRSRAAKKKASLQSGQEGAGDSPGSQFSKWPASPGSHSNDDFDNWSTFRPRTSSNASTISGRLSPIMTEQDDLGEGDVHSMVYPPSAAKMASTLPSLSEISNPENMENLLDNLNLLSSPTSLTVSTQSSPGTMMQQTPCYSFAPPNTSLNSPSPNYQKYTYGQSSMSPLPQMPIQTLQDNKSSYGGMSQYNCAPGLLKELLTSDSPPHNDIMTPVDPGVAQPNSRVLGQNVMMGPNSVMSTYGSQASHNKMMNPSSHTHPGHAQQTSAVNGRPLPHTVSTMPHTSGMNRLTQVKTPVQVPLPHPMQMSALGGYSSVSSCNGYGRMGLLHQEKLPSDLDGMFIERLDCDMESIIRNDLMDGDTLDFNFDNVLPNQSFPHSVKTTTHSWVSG

CCn1cc(C(=O)O)c(=O)c2c(N)c(F)c(NC3CCCCC3)cc21 [AS1842856]
localization of β-catenin (immunostaining) [1]: a remarkable amount of β-catenin was in the nucleus | effect on inhibiting the activity of FOXO3 (FOXO3): minimal effect | effect on inhibiting the activity of FOXO4 (FOXO4): minimal effect | increased expression of FOXC2, GATA2, KLF4, ITGA9, GJA4, NOS3, and PROX1 (comparison of treatment conditions) ([2]; 0.5 μM for 48 hrs): best results | GATA2 mRNA expression level ([2]; 24 hrs or 72 hrs AS treatment vs DMSO): not with 24 hrs or 72 hrs treatment | CTNNB1 mRNA expression ([2]; 48 hrs AS treatment vs DMSO): not altered | FOXC2 mRNA expression level ([2]; 48 hrs AS treatment vs DMSO): significantly upregulated | GATA2 mRNA expression level ([2]; 48 hrs AS treatment vs DMSO): significantly upregulated | GJA4 mRNA expression level ([2]; 48 hrs AS treatment vs DMSO): significantly higher | ITGA9 mRNA expression level ([2]; 48 hrs AS treatment vs DMSO): significantly higher | KLF4 mRNA expression level ([2]; 48 hrs AS treatment vs DMSO): significantly increased | NOS3 mRNA expression ([2]; 48 hrs AS treatment vs DMSO): significantly increased | PROX1 mRNA expression level ([2]; 48 hrs AS treatment vs DMSO): significantly increased | FOXC2 mRNA expression level ([2]; 48 hrs, 0.1 μM): trend of increase | GATA2 mRNA expression level ([2]; 48 hrs, 0.1 μM): trend of increase | GJA4 mRNA expression level ([2]; 48 hrs, 0.1 μM and 0.5 μM): upregulated | ITGA9 mRNA expression level ([2]; 48 hrs, 0.1 μM and 0.5 μM): upregulated | NOS3 mRNA expression level ([2]; 48 hrs, 0.1 μM and 0.5 μM): upregulated | PROX1 mRNA expression level ([2]; 48 hrs, 0.1 μM and 0.5 μM): upregulated | FOXC2 mRNA expression ([2]; 48 hrs, 0.5 μM and 1 μM): significant increase | GATA2 mRNA expression ([2]; 48 hrs, 0.5 μM and 1 μM): significant increase | GJA4 mRNA expression level ([2]; 48 hrs, 1 μM): not under 1 μM | ITGA9 mRNA expression level ([2]; 48 hrs, 1 μM): not under 1 μM | NOS3 mRNA expression level ([2]; 48 hrs, 1 μM): not under 1 μM | PROX1 mRNA expression level ([2]; 48 hrs, 1 μM): not under 1 μM | CTNNB1 mRNA expression ([2]; 48 hrs, 0.1, 0.5 and 1 μM): None of the concentrations induced significant upregulation | FOXO1 mRNA expression ([2]; 48 hrs, 0.1, 0.5 and 1 μM): None of the concentrations induced significant upregulation | KLF4 mRNA expression ([2]; 48 hrs, all three concentrations (0.1, 0.5, 1 μM)): increased | FOXO1 mRNA expression level ([2]; AS treatment vs DMSO): not altered | effect on transcription activity of FOXO1 in the nucleus (FOXO1): reduces the transcription activity of FOXO1
